The subject of one data set is adrenals. Particulars: cited from earlier work.
A further data set has as its system ACAT. Details: method as in PMID 8937424, PMID 12536672. Particulars: cited from earlier work.
The test system of the next data set is cortical regions. Details: method as in PMID 23427273. To be noted: fed to mice for seven days; cited from earlier work.
Another data set deals with ACAT1. Particulars: cited from earlier work.
For another data set, the target named is ACAT2. Particulars: cited from earlier work.
The next data set deals with 5xFAD mouse model. Details: method as in PMID 37157042. To be noted: oral feeding for 60 days; cited from earlier work.
On the set-up of data set [1]: method as in PMID 12735237. To be noted: cited from earlier work.
A further data set has as its system mouse model for EOAD. Details: method as in PMID 15473963. Particulars: slow-releasing pellet implanted underneath the mouse skin; cited from earlier work.
The nature of data set [2]: HPLC/MS/MS analysis of F12511 content in plasma and tissues. The data set is classed as in vivo. Particulars: mouse, brain / plasma, intravenous, 46 mg F12511/kg; 12 to 24 h time point. On the procedure:
We also monitored the ACAT enzyme activities in various tissues 4 to 48 h after a single IV injection of nanoparticle F at 46 mg/kg.
Both compounds were dissolved in DMSO at 10 mg/mL and stored at −40 °C. Subsequent working dilutions were made in fresh acetonitrile (ACN) daily. Calibrators and quality control measures were used in the appropriate matrix: C57BL/6 plasma (anticoagulant: K3-EDTA, Innovative Research), brain homogenate, liver homogenate, and adrenal gland homogenate. The tissues were homogenized at 0.1 g/mL in diH2O by using stainless steel beads and a Next Advance Bullet Blender. All the samples (50 µL) were protein precipitated, with 150 µL of 10 ng/mL CP113,818 in ACN acting as an internal standard and added via vortex for 1 min and centrifugation for 5 min at 15,000 rpm. In total, 150 µL of supernatant was transferred to amber autosampler vials, and 10 µL was injected on the LC-MS/MS system. […] The heated ESI source was operated with a spray voltage of 4500 V, vaporizer temperature at 500 °C, capillary temperature at 250 °C, and sheath and auxiliary gases at 30 and 15 arbitrary units, respectively.

A further data set concerns ACAT enzyme. Put plainly: ACAT enzyme activity in tissue homogenates after IV injection (mixed micelles assay). Particulars: judged by ACAT inhibition in brain.
On the set-up of data set [3]: method as in PMID 31646241. Particulars: cited from earlier work.

The text below walks through data of publication PMC10341764 (International Journal of Molecular Sciences, 2023).

For `CCCCCCCCC(SCCCCCC)C(=O)Nc1c(SC)cc(C)nc1SC` (single isomer, unassigned) [enantiomeric isomer of CP113,818], in the data set on adrenals, the adrenal toxicity result is recorded as “causes severe adrenal toxicity”. Moreover, the “activity as ACAT inhibitor” value in the data set with ACAT was “inactive as an ACAT inhibitor”.
In the case of `O=C(O)C[C@H]1CC[C@H](c2ccc(NC(=O)c3nnc(Nc4ccc(F)c(F)c4)o3)cc2)CC1` [AZD3988], the “fine vacuolation in cortical regions” value with cortical regions was “significant reduction in fine vacuolation in cortical regions”.
As for `CC(C)c1cc(C(C)C)c(CC(=O)NS(=O)(=O)Oc2c(C(C)C)cccc2C(C)C)c(C(C)C)c1` [CI1011, 2,6-bis(1-methylethyl)phenyl ((2,4,6-tris(1-methylethyl)phenyl)acetyl)sulfamate], the Ki at ACAT1 and at ACAT2 was 20000 nM in each case. The “amyloidopathy and other AD-like pathologies” value in the data set on 5xFAD mouse model is “ameliorated amyloidopathy and other AD-like pathologies”. Further, the “clinical phase 1 safety tests” value in data set [1] was “passed clinical phase 1 safety tests”.
Consider `CCCCCCCC[C@H](SCCCCCC)C(=O)Nc1c(SC)cc(C)nc1SC` [CP113,818], for which the amyloidopathy entry in the data set with mouse model for EOAD was “effective in suppressing amyloidopathy”. Further, the Ki on ACAT1 and at ACAT2 was 20 nM each time. In addition, the “adrenal accumulation and toxicity” value in the data set with adrenals (preclinical trial, animals) is “accumulated in adrenals in animals and caused toxicity”.
`CCCCCCCCCCCCS[C@H](C(=O)Nc1cc(C)c(O)c(C)c1C)c1ccccc1` [F12511, (S)-2′,3′,5′-trimethyl-4′-hydroxy-alpha-dodecylthio-alpha-phenylacetanilide]: in [2], the Kp lay within 0.005 to 0.01. For the same molecule, the “adrenal toxicity in animals” value in the data set on adrenals is listed as “did not cause adrenal toxicity in animals”. Moreover, the Ki on ACAT2 was 110 nM. For the same molecule, the “permeability to the mouse brain as part of nanoparticles” value in the data set with ACAT enzyme is “permeable to the mouse brain”. Further, in data set [1], the “clinical phase 1 safety tests” value is “passed clinical phase 1 safety tests”.
For `CSc1cc(C)nc(SC)c1NC(=O)CN1CCN(CCSc2nc3ccccc3[nH]2)CC1.Cl.Cl` [K604, 2-[4-[2-(Benzimidazol-2-ylthio)ethyl]piperazin-1yl]-N-[2,4-bis(methylthio)-6-methyl-3-pyridyl]acetamide dihydrochloride], the “permeability to the mouse brain” value in data set [3] is recorded as “impermeable to the mouse brain”. Also, the “clinical phase 1 safety tests” value in data set [1] is given as “passed clinical phase 1 safety tests”.
